Experimental findings from patent US20260028348A1, “MODULATORS OF TNF-ALPHA ACTIVITY” (Forward Therapeutics, Inc., priority 2023, published 2026) are described below.

The subject of this experiment is HEK Blue™ TNFα reporter cells. Kind of experiment: TNF-α Induced HEK Blue Cellular Assay. Particulars: TNF-α stimulated HEK Blue TNFα reporter cells, 24 hrs, secreted alkaline phosphatase (QUANTI-Blue, 620 nm). Format: cell-based. The procedure: Test articles were diluted in DMSO and serially diluted into 384 well assay plate (Corning 3765), at final concentrations ranging from […] to 0.5 nM. HEK Blue™ TNFα reporter cells were added at a final density of 10,000 cell per well in assay media [DMEM (Gibco, cat #21063-029), 10% fetal bovine serum (ExcelBio, cat #FND500), 1% Penicillin-Streptomycin (Solarbio, cat #P1400-100]. TNF-α (R&D 210-TA-020/CF) was then added to the assay plate at a final concentration of […]. This plate was then incubated for 24 hrs at 37° C. and 5% CO2. Secreted alkaline phosphatase expression was then measured using QUANTI-Blue™(Invivogen), according to manufacturer instructions and read on an Envision microplate reader at 620 nm.
Inhibition data for test compound over a range of concentration was plotted as percentage inhibition of the test compound (100%=maximum inhibition). IC50 values were determined after correcting for background [(sample read-mean of low control)/(mean of high control-mean of low control)] whereby the low control is DMSO without stimulation and high control is DMSO with stimulation. The IC50 is defined as the concentration of test compound which produces […] and was quantified using the 4 parameter logistic equation to fit the data.

As usually defined, the IC50 is the concentration that inhibits the measured activity by half. A higher IC50 goes with weaker potency. The molecule `CN1C(=O)c2cccc(OC(F)F)c2[C@H]2C[C@@H]1c1nc3ccc(-c4ccc5c(c4)OC[C@@H]5N)cc3n12` [Example 5, (1R,11R)-5-[(3R)-3-amino-2,3-dihydro-1-benzofuran-6-yl]-18-(difluoromethoxy)-12-methyl-2,9,12-triazapentacyclo[9.8.1.0^{2,10}.0^{3,8}.0^{14,19}]icosa-3(8),4,6,9,14(19),15,17-heptaen-13-one] displayed an IC50 below 100 nM.

Turning to `[2H]C([2H])([2H])N1C(=O)c2cccc(OC(F)F)c2[C@H]2C[C@@H]1c1nc3ccc(-c4cnc5c(c4)OCC[C@@]5(C)O)nc3n12` (single isomer, unassigned) [Example 69], the IC50 lay within 10000 to 30000 nM.

With `[2H]C([2H])([2H])N1C(=O)c2cccc(OC(F)F)c2[C@H]2C[C@@H]1c1nc3ccc(-c4cnc5c(c4)COC[C@@]5(O)CC)cc3n12` (single isomer, unassigned) [Example 40], the IC50 is 10000 to 30000 nM.

For `CN1C(=O)c2cccc(OC(F)F)c2[C@H]2C[C@@H]1c1nc3ccc(-c4cnc5c(c4)OC[C@@]5(C)N)cc3n12` (single isomer, unassigned) [Example 58], the IC50 is below 100 nM.

In turn, `[2H]C([2H])([2H])N1C(=O)c2cccc(OC(F)F)c2[C@H]2C[C@@H]1c1nc3ccc(-c4cnc5c(c4)NC(=O)[C@@]5(C)O)cc3n12` (single isomer, unassigned) [Example 43] displayed an IC50 below 100 nM.

As to `[2H]C([2H])([2H])N1C(=O)c2cccc(OC(F)F)c2[C@H]2C[C@@H]1c1nc3cc(F)c(-c4cnc5c(c4)CC[C@]5(C)N)cc3n12` (single isomer, unassigned) [Example 25], the IC50 was below 100 nM.

In turn, `[2H]C([2H])([2H])N1C(=O)c2cccc(OC(F)F)c2[C@H]2C[C@@H]1c1nc3ccc(-c4cnc5c(c4)OCC[C@]5(C)O)cc3n12` (single isomer, unassigned) [Example 34] showed a half-inhibitory concentration (IC50) below 100 nM.

Consider `CN1C(=O)c2cccc(OC(F)F)c2[C@H]2C[C@@H]1c1nc3ccc(-c4cnc5c(c4)CCC5=O)cc3n12` [Example 8, (1R,11R)-18-(difluoromethoxy)-12-methyl-5-{7-oxo-5H,6H-cyclopenta[b]pyridin-3-yl}-2,9,12-triazapentacyclo[9.8.1.0^{2,10}.0^{3,8}.0^{14,19}]icosa-3(8),4,6,9,14(19),15,17-heptaen-13-one], for which the IC50 was below 100 nM.

Consider `[2H]C([2H])([2H])N1C(=O)c2cccc(OC(F)F)c2[C@H]2C[C@@H]1c1nc3ccc(-c4cnc5c(c4)OC[C@]5(C)N)nc3n12` (single isomer, unassigned) [Example 60], for which the half-inhibitory concentration (IC50) lay in the range of 100 to 1000 nM.

Molecule `[2H]C([2H])([2H])N1C(=O)c2cccc(OC(F)F)c2[C@H]2C[C@@H]1c1nc3ccc(-c4cnc5c(c4)COCC5(C)N)cc3n12` (stereo partly drawn) [Example 45, (7R,14R)-11-(8-amino-8-methyl-7,8-dihydro-5H-pyrano[4,3-b]pyridin-3-yl)-1-(difluoromethoxy)-6-(methyl-d3)-6,7-dihydro-7,14-methanobenzo[f]benzo[4,5]imidazo[1,2-a][1,4]diazocin-5(14H)-one] yielded an IC50 of 100 to 1000 nM.

On to `[2H]C([2H])([2H])N1C(=O)c2cccc(OC(F)F)c2[C@H]2C[C@@H]1c1nc3cc(F)c(-c4cnc5c(c4)OC[C@]5(C)N)cc3n12` (single isomer, unassigned) [Example 62], for which the IC50 was below 100 nM.

`CN1C(=O)c2cccc(OC(F)F)c2[C@H]2C[C@@H]1c1nc3ccc(-c4cnc5c(c4)CC[C@@]5(N)CO)cc3n12` (single isomer, unassigned) [Example 37] gave an IC50 below 100 nM.

The molecule `[2H]C([2H])([2H])N1C(=O)c2cccc(OC(F)F)c2[C@H]2C[C@@H]1c1nc3ccc(-c4cnc5c(c4)OCCC5O)cc3n12` (stereo partly drawn) [Example 48, (7R,14R)-1-(difluoromethoxy)-11-(4-hydroxy-3,4-dihydro-2H-pyrano[3,2-b]pyridin-7-yl)-6-(methyl-d3)-6,7-dihydro-7,14-methanobenzo[f]benzo[4,5]imidazo[1,2-a][1,4]diazocin-5(14H)-one] had an IC50 below 100 nM.

The molecule `CN1C(=O)c2cccc(OC(F)F)c2[C@H]2C[C@@H]1c1nc3ccc(-c4ccc5c(c4)CC[C@@H]5N)cc3n12` [Example 2, (1R,11R)-5-[(1S)-1-amino-2,3-dihydro-1H-inden-5-yl]-18-(difluoromethoxy)-12-methyl-2,9,12-triazapentacyclo[9.8.1.0^{2,10}.0^{3,8}.0^{14,19}]icosa-3(8),4,6,9,14(19),15,17-heptaen-13-one] yielded a half-inhibitory concentration (IC50) below 100 nM.

Molecule `[2H]C([2H])([2H])N1C(=O)c2cccc(OC(F)F)c2[C@H]2C[C@@H]1c1nc3ccc(-c4cnc5c(c4)OC[C@@]5(C)O)cc3n12` (single isomer, unassigned) [Example 47] had a half-inhibitory concentration (IC50) below 100 nM.

Regarding `CN1C(=O)c2cccc(OC(F)F)c2[C@H]2C[C@@H]1c1nc3ccc(-c4cnc5c(c4)CC[C@]5(C)N)cc3n12` (single isomer, unassigned) [Example 23], the IC50 was below 100 nM.

Molecule `N[C@H]1CCc2cc(-c3ccc4nc5n(c4c3)[C@@H]3C[C@H]5NC(=O)c4cccc(OC(F)F)c43)ccc21` [Example 6, (1R,11R)-5-[(1S)-1-amino-2,3-dihydro-1H-inden-5-yl]-18-(difluoromethoxy)-2,9,12-triazapentacyclo[9.8.1.0^{2,10}.0^{3,8}.0^{14,19}]icosa-3(8),4,6,9,14(19),15,17-heptaen-13-one] showed an IC50 below 100 nM.
